Measurements: patent US11485728B2, “Small molecules for the treatment of autoimmune diseases and cancer” (Athos Therapeutics, Inc., priority 2020, dated 2022)

Tests used:
[1] = system: HT-29 colorectal cancer cells; test: HT-29 cell viability (Real-Time-Glo); assay type: cell-based; conditions: for IC50: Homo sapiens, HT-29, 72 hr, read-out: IC50, Cell line: HT-29; for growth of HT-29 colorectal cancer cells: luminescence at 72 h
Description: Equal volume of 2× RealTime-Glo™ reagent (2 μl of MT Cell Viability Substrate 1,000×, and 2 μl of NanoLuc® Enzyme 1,000×, per 1 ml of media, Promega) was added to each well and cells were incubated at 37° C. Luminescence was evaluated at 72 h.
(§1) To determine the plating density for cell viability assays, for each cell line, cells were counted and diluted to final densities of 2.5, 5, 10 and 20 thousand per 100 μl of their respective growth media per well in 96 well plates. A Promega Real-Time-Glo cell viability kit was used to determine the optimal concentration for cell plating so that each cell line would be within the linear part of its growth curve after 72 hrs in culture. […] Test compounds were then added at different concentrations for the creation of six-point curve and cell density was determined using the Promega Real-Time-Glo cell viability kit after 24, 48, and 72 hrs in culture.
Specifically, the Promega Real-Time-Glo cell viability kit was used to determine the optimal concentration for cell plating so that each cell line would be within the linear part of its growth curve after 72 hrs in culture. […] Test compounds are then added at different concentrations for the creation of six-point curve and cell density is determined using the Promega Real-Time-Glo cell viability kit after 24, 48, and 72 hrs in culture. […]

[2] = system: C57BL/6 mice with DSS colitis; test: DSS colitis in C57BL/6 mice; assay type: in vivo; conditions: for Clinical Score: includes weight, bleeding, diarrhea, rectal prolapse; for protection against colitis induced weight loss / colitis-induced weight loss / colon length shortening: daily oral gavage; for protection against colitis induced weight loss: after d11; for colitis-induced weight loss / colon length shortening: d12; on Clinical Score: key: −: indicates no statistically significant effect in the variable measured when compared with the control group; +: indicates a statistically significant difference in the variable measured when compared with the control group; ++: indicates measurements that include multiple variables in the calculation of their differences when compared with the control group, and represents the presence of significant changes across all variable measurements
Description: Dextran sodium sulfate (DSS) was added to the water 24 hrs after compound administration and weight was measured daily.
C57BL/6 mice (20-22 grams) were fed ad lib and assigned to 4 different groups (n=8/group). […] A control group received vehicle alone. After 24 hrs, mice were weighed and DSS was added to their drinking water. Mice were then treated with the test compounds and weighed daily and the DSS water was replenished every 72 hrs for 5 days, at which point, it was replaced by regular drinking water. Mice were sacrificed on day twelve and clinical scored was assessed. Intestinal tissue for and blood were also collected. Tissues were either flash frozen and kept in −80° C. for RNA and protein isolation or placed in 10% formalin solution for future histological analysis. Blood was spun at 5K rpm for 5 min and serum was collected and kept at −20° C. for multiplex cytokine analysis.
DSS colitis mouse model: C57BL/6 mice (20-22 grains) are fed ad lib and assigned to different groups (n=8/group). […] A control group receives vehicle alone. After 24 h, mice are weighed and DSS is added to their drinking water. Mice are then treated with the test compounds and weighed daily and the DSS water is replenished every 72 liars for 5 days, at which point, it is replaced by regular drinking water. Mice are sacrificed on day twelve and clinical scored was assessed. Intestinal tissue for and blood are also collected. Tissues are either flash frozen and kept in −80° C. for RNA and protein isolation or placed in 10% formalin solution for future histological analysis.

HCT-116 = HCT-116 cell viability (Real-Time-Glo); assay type: cell-based; conditions: Homo sapiens, 72 hr, read-out: IC50, Cell line: HCT-116
Description: as §1

5637 = 5637 bladder cancer cell viability (Real-Time-Glo); assay type: cell-based; conditions: 72 hr; read-out: IC50, Cell line: 5637
Description: To determine the plating density for cell viability assays, for each cell line, cells were counted and diluted to final densities of 2.5, 5, 10 and 20 thousand per 100 μl of their respective growth media per well in 96 well plates. A Promega Real-Time-Glo cell viability kit was used to determine the optimal concentration for cell plating so that each cell line would be within the linear part of its growth curve after 72 hrs in culture. For the determination of test compound IC50s different cancer cell lines were plated in 96 well plates in the pre-determined optimal density for each cell line. Test compounds were then added at different concentrations for the creation of six-point curve and cell density was determined using the Promega Real-Time-Glo cell viability kit after 24, 48, and 72 hrs in culture. Test compound 72 hr IC50s were calculated using the AAT Bioquest IC50 calculator.
The following compounds are evaluated for their ability to block cancer cell growth in colon (HT-29), liver (HepG2), pancreatic (MiaPaca-2) and bladder (5637) cancer cell lines. Specifically, the Promega Real-Time-Glo cell viability kit was used to determine the optimal concentration for cell plating so that each cell line would be within the linear part of its growth curve after 72 hrs in culture. For the determination of test compound IC50s different cancer cell lines are plated in 96 well plates in the pre-determined optimal density for each cell line. Test compounds are then added at different concentrations for the creation of six-point curve and cell density is determined using the Promega Real-Time-Glo cell viability kit after 24, 48, and 72 hrs in culture. Test compound 72 hr IC50s is calculated using the AAT Bioquest IC50 calculator.

[3] = 25 mg/kg PO daily, sacrificed day twelve
[4] = 50 mg/kg daily oral, d12 after DSS induction, vs vehicle

Compound | IC50 [1] | IC50 (HCT-116) | IC50 5637 | growth of HT-29 colorectal cancer cells [1] | effect on the effects of DSS colitis (in words) ([2]; 25 mg/kg PO daily) | Colon Length ([2]; 25 mg/kg PO daily, day twelve) | Clinical Score ([2]; 25 mg/kg PO daily, day twelve) | DSS Efficacy [2, 3] | further results
COc1cc2c(Nc3ccncc3)nc(N3CCC(F)(F)CC3)nc2cc1OCCCN1CCCC1 [Compound 7, 2-(4,4-difluoropiperidin-1-yl)-6-methoxy-N-(pyridin-4-yl)-7-(3-(pyrrolidin-1-yl)propoxy)quinazolin-4-amine] | 1 to 5 µM | 1000 to 5000 nM | 1 to 5 µM |  |  |  |  |  | DSS Efficacy ([2]; 25 mg/kg PO daily, day twelve): −
COc1cc2c(NC3CCN(C(C)C)CC3)nc(C#N)nc2cc1OCCCN1CCCC1 [Compound 235, 4-((1-isopropylpiperidin-4-yl)amino)-6-methoxy-7-(3-(pyrrolidin-1-yl)propoxy)quinazoline-2-carbonitrile] |  | 1000 to 5000 nM | 5 to 10 µM |  |  |  |  |  | 
COc1cc2c(NC3CCOCC3)nc(N3CCCC3)nc2cc1OCCCN1CCCC1 [Compound 164, 6-methoxy-2-(pyrrolidin-1-yl)-7-(3-(pyrrolidin-1-yl)propoxy)-N-(tetrahydro-2H-pyran-4-yl)quinazolin-4-amine] |  | 1000 to 5000 nM | 5 to 10 µM |  |  |  |  |  | DSS Efficacy ([2]; 25 mg/kg PO daily, day twelve): ++
COc1cc2c(NC3CCOCC3)nc(N3CCC(F)(F)CC3)nc2cc1OCCCN1CCCC1 [Compound 2, 2-(4,4-difluoropiperidin-1-yl)-6-methoxy-7-(3-(pyrrolidin-1-yl)propoxy)-N-(tetrahydro-2H-pyran-4-yl)quinazolin-4-amine] | 1 to 5 µM |  | 10 to 20 µM | potent anti-cancer activity | alleviation of the effects of DSS colitis | ++ | ++ | ++ | effect on overall efficacy, clinical score and colon length (in words) ([2]; 25 mg/kg PO daily): very strong effect; protection against colitis induced weight loss [2]: significant protection against colitis induced weight loss; colitis-induced weight loss ([2]; vs vehicle): significantly prevented; colon length shortening ([2]; vs vehicle): significantly prevented
COc1cc2c(NC3CCOCC3)nc(N3CCC3)nc2cc1OCCCN1CCCC1 [Compound 174, 2-(azetidin-1-yl)-6-methoxy-7-(3-(pyrrolidin-1-yl)propoxy)-N-(tetrahydro-2H-pyran-4-yl)quinazolin-4-amine] |  | 1000 to 5000 nM | 10 to 20 µM |  |  |  |  |  | 
COc1cc2c(NC3CCN(C(C)C)CC3)nc(N3CCC3)nc2cc1OCCCN1CCCC1 [Compound 234, 2-(azetidin-1-yl)-N-(1-isopropylpiperidin-4-yl)-6-methoxy-7-(3-(pyrrolidin-1-yl)propoxy)quinazolin-4-amine] |  | 1000 to 5000 nM | 5 to 10 µM |  |  |  |  |  | 
COc1cc2c(NCC3CCN(C)CC3)nc(N3CCC(F)(F)CC3)nc2cc1OCCCN1CCCC1 [Compound 5, 2-(4,4-difluoropiperidin-1-yl)-6-methoxy-N-((1-methylpiperidin-4-yl)methyl)-7-(3-(pyrrolidin-1-yl)propoxy)quinazolin-4-amine] |  |  |  |  | alleviation of the effects of DSS colitis | + | + | + | 
COc1cc2c(NC3CCN(C(C)C)CC3)nc(-n3ccnc3)nc2cc1OCCCN1CCCC1 [Compound 156, 2-(1H-imidazol-1-yl)-N-(1-isopropylpiperidin-4-yl)-6-methoxy-7-(3-(pyrrolidin-1-yl)propoxy)quinazolin-4-amine] | 1 to 5 µM | 1000 to 5000 nM | 1 to 5 µM |  |  |  |  |  | 
COc1cc2c(NC3CCN(C(C)C)CC3)nc(N3CCC(F)(F)CC3)nc2cc1OCCCN1CCCC1 [Compound 400, 2-(4,4-difluoropiperidin-1-yl)-N-(1-isopropylpiperidin-4-yl)-6-methoxy-7-(3-(pyrrolidin-1-yl)propoxy)quinazolin-4-amine, reference compound] | 5 to 10 µM |  |  |  | no effect | − | − | − | DSS-induced weight loss ([2]; 50 mg/kg daily oral): failed to increase DSS-induced weight loss; Colon Length [2, 4]: not
COc1cc2c(NC3CCS(=O)(=O)CC3)nc(N3CCC(F)(F)CC3)nc2cc1OCCCN1CCCC1 [Compound 1, 4-((2-(4,4-difluoropiperidin-1-yl)-6-methoxy-7-(3-(pyrrolidin-1-yl)propoxy)quinazolin-4-yl)amino)tetrahydro-2H-thiopyran 1,1-dioxide] |  |  |  | potent anti-cancer activity | alleviation of the effects of DSS colitis | + | + | + | DSS-induced weight loss ([2]; 50 mg/kg daily oral): resulted in increased weight; Colon Length [2, 4]: increased; protection against colitis induced weight loss [2]: significant protection against colitis induced weight loss; colitis-induced weight loss ([2]; vs vehicle): significantly prevented; colon length shortening ([2]; vs vehicle): significantly prevented
COCCN1CCC(Nc2nc(N3CCC(F)(F)CC3)nc3cc(OCCCN4CCCC4)c(OC)cc23)CC1 [Compound 3, 2-(4,4-difluoropiperidin-1-yl)-6-methoxy-N-(1-(2-methoxyethyl)piperidin-4-yl)-7-(3-(pyrrolidin-1-yl)propoxy)quinazolin-4-amine] |  | 1000 to 5000 nM | 5 to 10 µM | potent anti-cancer activity |  |  |  |  | 
COCCNc1nc(N2CCC(F)(F)CC2)nc2cc(OCCCN3CCCC3)c(OC)cc12 [Compound 4, 2-(4,4-difluoropiperidin-1-yl)-6-methoxy-N-(2-methoxyethyl)-7-(3-(pyrrolidin-1-yl)propoxy)quinazolin-4-amine] | 1 to 5 µM | 1000 to 5000 nM | 10 to 20 µM | potent anti-cancer activity |  |  |  |  | 
